The structures appear in SMILES notation. In brackets after ≈: the same amount, converted by molar mass.

Data set [1] is described as follows: Intrinsic reactivity of the inhibitors (kchem) with βME measured with HPLC. Format: physicochemical. As to conditions: 1 mM inhibitor + 600 mM βME, n = 3.
Another data set is described as follows: Experimental LogD. Format: physicochemical. To be noted: pH 7.4; 3 independent measurements.
A short description of the next data set: PBS solubility. Format: physicochemical. As to conditions: aqueous buffer, pH 7.4, 3 independent measurements.
Data set [2] concerns pSer473 of PKB/Akt in SKOV3 cells. Description: In Cell Western cellular PI3K signaling and IC50 determination. As to conditions: Homo sapiens, SK-OV-3; SKOV3 cells; 2 or 3 independent measurements; read-out: IC50 pPKB (S473) SKOV3. Format: cell-based. The procedure:
Protein phosphorylation was detected as follows: pSer473 of PKB/Akt with rabbit polyclonal antibody from Cell Signaling Technology (CST) (#4058) by In-Cell Western assays, where 1.2×10^4 SKOV3 cells/well in 96-well plates were plated (Cell Carrier, PerkinElmer) for 24 hours (37° C., 5% CO2), as described in Ref. ^25.

Another data set deals with p110α (PI3Kα) (Homo sapiens, UniProt P42336). Description: Determination of kinetic constants (kinact, Ki) for p110α by LanthaScreen Technology. Format: binding. As to conditions: for Ki: dissociation constant of the first reversible binding, read-out: Ki PI3Kα; for Ki / kinact: global fitting with KinTek; for kinact: maximum potential rate of covalent bond formation, read-out: kinact PI3Kα; for kinact/KI: read-out: kinact/Ki PI3Kα. (In TR-FRET formats the signal depends on donor and acceptor labels being close together.)
p110α (PI3Kα), sequence (P42336 whole entry): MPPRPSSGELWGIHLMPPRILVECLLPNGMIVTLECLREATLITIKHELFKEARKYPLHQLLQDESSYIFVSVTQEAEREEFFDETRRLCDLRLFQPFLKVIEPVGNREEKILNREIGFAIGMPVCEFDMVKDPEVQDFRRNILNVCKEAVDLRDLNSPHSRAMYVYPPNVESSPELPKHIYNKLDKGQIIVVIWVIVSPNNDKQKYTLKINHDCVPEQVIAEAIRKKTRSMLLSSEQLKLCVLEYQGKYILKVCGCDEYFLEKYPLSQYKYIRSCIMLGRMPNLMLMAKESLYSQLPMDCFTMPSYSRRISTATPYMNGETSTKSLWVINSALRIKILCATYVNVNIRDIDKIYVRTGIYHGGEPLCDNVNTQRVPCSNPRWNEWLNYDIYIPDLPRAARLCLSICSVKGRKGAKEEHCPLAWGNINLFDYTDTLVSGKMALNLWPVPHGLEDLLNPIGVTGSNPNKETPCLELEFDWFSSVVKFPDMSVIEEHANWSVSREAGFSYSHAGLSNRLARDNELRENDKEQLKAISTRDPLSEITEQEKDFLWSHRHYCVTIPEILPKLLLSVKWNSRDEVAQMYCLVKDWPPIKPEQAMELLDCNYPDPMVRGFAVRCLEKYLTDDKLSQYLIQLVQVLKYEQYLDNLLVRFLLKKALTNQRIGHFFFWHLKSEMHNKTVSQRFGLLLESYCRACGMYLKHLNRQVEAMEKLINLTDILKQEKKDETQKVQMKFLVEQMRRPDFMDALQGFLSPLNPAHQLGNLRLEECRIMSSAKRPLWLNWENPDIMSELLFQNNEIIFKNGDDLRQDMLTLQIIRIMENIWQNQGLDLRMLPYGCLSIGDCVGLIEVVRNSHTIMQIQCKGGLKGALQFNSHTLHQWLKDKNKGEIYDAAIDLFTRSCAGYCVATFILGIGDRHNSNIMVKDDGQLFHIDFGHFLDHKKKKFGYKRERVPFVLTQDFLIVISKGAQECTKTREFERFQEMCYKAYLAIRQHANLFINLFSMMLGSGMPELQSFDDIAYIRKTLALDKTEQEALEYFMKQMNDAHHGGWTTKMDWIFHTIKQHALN
p110α (PI3Kα), sequence (P27986 whole entry partner): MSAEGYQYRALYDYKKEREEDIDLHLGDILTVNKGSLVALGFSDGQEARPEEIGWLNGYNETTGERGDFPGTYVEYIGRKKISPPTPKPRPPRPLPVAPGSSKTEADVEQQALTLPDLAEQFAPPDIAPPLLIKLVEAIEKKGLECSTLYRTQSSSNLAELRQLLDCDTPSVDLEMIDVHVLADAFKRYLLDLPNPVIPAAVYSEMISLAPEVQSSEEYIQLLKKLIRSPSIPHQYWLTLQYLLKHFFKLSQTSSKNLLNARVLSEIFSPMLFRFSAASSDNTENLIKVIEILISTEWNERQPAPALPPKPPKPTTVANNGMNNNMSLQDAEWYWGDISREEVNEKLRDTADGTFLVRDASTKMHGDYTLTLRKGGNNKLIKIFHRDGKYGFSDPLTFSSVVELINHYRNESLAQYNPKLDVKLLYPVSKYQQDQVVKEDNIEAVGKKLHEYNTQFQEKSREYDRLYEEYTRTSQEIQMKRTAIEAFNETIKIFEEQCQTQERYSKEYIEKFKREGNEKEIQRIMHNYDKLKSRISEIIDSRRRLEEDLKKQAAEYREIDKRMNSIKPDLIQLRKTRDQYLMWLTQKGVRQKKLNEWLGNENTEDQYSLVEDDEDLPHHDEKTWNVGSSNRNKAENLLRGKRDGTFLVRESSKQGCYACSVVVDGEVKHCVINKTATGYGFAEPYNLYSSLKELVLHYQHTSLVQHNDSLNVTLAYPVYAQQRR

Description for p110α (PI3Kα): Maximum potential rate of covalent bond formation (kinact) and dissociation constant of the first reversible binding (Ki) of compounds for p110α were determined by LanthaScreen Technology (Life Technologies). The calculation of kinetic parameters was carried out through global fitting for numerical integration by using KinTek Global Kinetic Explorer modelling software^26-31.

For the compound `C=CC(=O)N1CCC(CCCC(=O)N2CCN(c3nc(-c4cnc(N)nc4C(F)F)nc(N4CCOCC4)n3)CC2)CC1` [Compound 41, 4-(1-acryloylpiperidin-4-yl)-1-(4-(4-(2-amino-4-(difluoromethyl)pyrimidin-5-yl)-6-morpholino-1,3,5-triazin-2-yl)piperazin-1-yl)butan-1-one], in data set [1], the “kchem (intrinsic reactivity of the inhibitors)” value was determined as 0.000225 M⁻¹ s⁻¹. The compound also yielded a logD in “Experimental LogD” of 2.67. In addition, the solubility in the data set “PBS solubility” was 243 µM (≈ 146 µg/mL).

For the compound `C=CC(=O)N1CCC(Cc2cccc(C(=O)N3CCN(c4nc(-c5cnc(N)nc5C(F)F)nc(N5CCOCC5)n4)CC3)c2)CC1` [Compound 101, 1-(4-(3-(4-(4-(2-amino-4-(difluoromethyl)pyrimidin-5-yl)-6-morpholino-1,3,5-triazin-2-yl)piperazine-1-carbonyl)benzyl)piperidin-1-yl)prop-2-en-1-one], in data set [1], the “kchem (intrinsic reactivity of the inhibitors)” value worked out at 0.00029 M⁻¹ s⁻¹. Further, in “Experimental LogD”, the logD is 2.66. In addition, in data set [2], the IC50 came to 43 nM. On p110α (PI3Kα), the Ki was found to be 10.5 nM, the kinact came out at 0.00015 s⁻¹ and the kinact/KI is 14300 M⁻¹ s⁻¹. The solubility in “PBS solubility” was 46 µM (≈ 29.8 µg/mL).

For the compound `C=CC(=O)N1CCC(COCC(=O)N2CCN(c3nc(-c4cnc(N)nc4C(F)F)nc(N4CCOCC4)n3)CC2)CC1` [Compound 61, 1-(4-((2-(4-(4-(2-amino-4-(difluoromethyl)pyrimidin-5-yl)-6-morpholino-1,3,5-triazin-2-yl)piperazin-1-yl)-2-oxoethoxy)methyl)piperidin-1-yl)prop-2-en-1-one], the “kchem (intrinsic reactivity of the inhibitors)” value in data set [1] was found to be 0.00029 M⁻¹ s⁻¹. Moreover, in the data set “Experimental LogD”, the logD was 1.7. In the data set “PBS solubility”, this compound had a solubility of 381 µM (≈ 230 µg/mL).

Turning to `CC(C)=CC(=O)CCC(=O)N1CCN(Cc2cc3nc(-c4cccc5[nH]ncc45)nc(N4CCOCC4)c3s2)CC1` [CNX-1351, 1-[4-[[2-(1H-indazol-4-yl)-4-(4-morpholinyl)thieno[3,2-d]pyrimidin-6-yl]methyl]-1-piperazinyl]-6-methyl-5-heptene-1,4-dione, reference compound], in data set [1], the “kchem (intrinsic reactivity of the inhibitors)” value stood at 0.000222 M⁻¹ s⁻¹. This compound also came in with a logD in the data set “Experimental LogD” of 3.96. Also, the concentration in solution in “PBS solubility” (solubility) was 10 µM (≈ 5.74 µg/mL).

With `C=CC(=O)N1CCC(CC(=O)N2CCN(c3nc(-c4cnc(N)nc4C(F)F)nc(N4CCOCC4)n3)CC2)CC1` [Compound 35, 1-(4-(2-(4-(4-(2-amino-4-(difluoromethyl)pyrimidin-5-yl)-6-morpholino-1,3,5-triazin-2-yl)piperazin-1-yl)-2-oxoethyl)piperidin-1-yl)prop-2-en-1-one], the “kchem (intrinsic reactivity of the inhibitors)” value in data set [1] worked out at 0.000249 M⁻¹ s⁻¹. For the same compound, in data set [2], the IC50 turned out to be 47 nM. For the same compound, at p110α (PI3Kα), the inhibition constant Ki turned out to be 10.8 nM, the kinact is 9.84e-05 s⁻¹ and the kinact/KI was found to be 9290 M⁻¹ s⁻¹.

As to `C=CC(=O)N1CCC(C(=O)NCCN2CCN(c3nc(-c4cnc(N)nc4C(F)F)nc(N4CCOCC4)n3)CC2)CC1` [Compound 62, 1-acryloyl-N-(2-(4-(4-(2-amino-4-(difluoromethyl)pyrimidin-5-yl)-6-morpholino-1,3,5-triazin-2-yl)piperazin-1-yl)ethyl)piperidine-4-carboxamide], the “kchem (intrinsic reactivity of the inhibitors)” value in data set [1] was determined as 0.000518 M⁻¹ s⁻¹. In the data set “Experimental LogD”, this compound registered a logD of 1.4. Also, in data set [2], the IC50 was 82 nM. In addition, on p110α (PI3Kα), the Ki was 16.2 nM, the kinact is 0.000187 s⁻¹ and the kinact/KI turned out to be 11600 M⁻¹ s⁻¹. Further, in “PBS solubility”, the solubility amounted to 393 µM (≈ 236 µg/mL).

As to `C=CC(=O)N1CCC(C(=O)N2CCN(c3nc(-c4cnc(N)nc4C(F)F)nc(N4CCOCC4)n3)CC2)CC1` [Compound 28, 1-(4-(4-(4-(2-amino-4-(difluoromethyl)pyrimidin-5-yl)-6-morpholino-1,3,5-triazin-2-yl)piperazine-1-carbonyl)piperidin-1-yl)prop-2-en-1-one], the “kchem (intrinsic reactivity of the inhibitors)” value in data set [1] is 0.00041 M⁻¹ s⁻¹. Also, the IC50 in data set [2] worked out at 51 nM. Also, on p110α (PI3Kα), the Ki amounted to 10.8 nM, the kinact worked out at 5.77e-05 s⁻¹ and the kinact/KI was 5390 M⁻¹ s⁻¹.

Take `C=CC(=O)N1CCC(CCC(=O)N2CCN(c3nc(-c4cnc(N)nc4C(F)F)nc(N4CCOCC4)n3)CC2)CC1` [Compound 40, 1-(4-(3-(4-(4-(2-amino-4-(difluoromethyl)pyrimidin-5-yl)-6-morpholino-1,3,5-triazin-2-yl)piperazin-1-yl)-3-oxopropyl)piperidin-1-yl)prop-2-en-1-one]: the “kchem (intrinsic reactivity of the inhibitors)” value in data set [1] is 0.000307 M⁻¹ s⁻¹. Also, the IC50 in data set [2] worked out at 48 nM. Also, on p110α (PI3Kα), the Ki came out at 8.56 nM, the kinact was found to be 0.000292 s⁻¹ and the kinact/KI worked out at 34300 M⁻¹ s⁻¹.

For the compound `C/C=C/C(=O)CCC(=O)N1CCN(c2nc(-c3cnc(N)nc3C(F)F)nc(N3CCOCC3)n2)CC1` [Compound 19, (E)-1-(4-(4-(2-amino-4-(difluoromethyl)pyrimidin-5-yl)-6-morpholino-1,3,5-triazin-2-yl)piperazin-1-yl)hept-5-ene-1,4-dione], the “kchem (intrinsic reactivity of the inhibitors)” value in data set [1] was 0.0484 M⁻¹ s⁻¹. In data set [2], the half-inhibitory concentration (IC50) came out at 20 nM. In addition, on p110α (PI3Kα), the Ki amounted to 1.51 nM, the kinact came to 0.0002 s⁻¹ and the kinact/KI was found to be 130000 M⁻¹ s⁻¹.

One may read the logD as lipophilicity at a set pH, counting ionised and neutral species. A low value points to a more hydrophilic compound. Broadly, the solubility is the dissolved amount per volume that the medium holds. A higher solubility goes with much dissolved substance. By IC50 is commonly meant the concentration that gives 50% inhibition. Broadly, the Ki is a dissociation constant, usually derived from enzyme kinetics or from competition with a known ligand. One may read the kinact as the rate constant of inactivation at saturating inhibitor.

(Values after patent US20240217960A1, “TRIAZINE DERIVATIVE AS COVALENT INHIBITORS OF PI3K” (UNIVERSITÄT BASEL, priority 2021, published 2024).)
